Like-named read-outs stand apart in the source and are kept apart here. Each block holds one compound with its values, some of them ahead of it.
What was measured:
PI3Kα = PI3Kα (Homo sapiens, UniProt P42336); assay: in vitro PI3Kα kinase inhibition assay; format: biochemical
Method: (§1) The in vitro inhibition assays of all final compounds against PI3K were performed by Shanghai ChemPartner Co., Ltd. (China). The antiproliferative activities of the compounds against A2780, U87MG, MCF7, and DU145 cell lines were tested by the standard MTT method. CHO cells stably expressing the transcript of hERG were investigated by the automated whole-cell patch clamp technique, using the QPatch system (Sophion). The compound was tested with Salmonella typhimurium strains TA98 and TA100 with the plate incorporation method at seven doses. Apoptosis was evaluated using the One-Step TUNEL Apoptosis Assay Kit (FITC) (cat. no. MA0223; Meilunbio, Dalian, China), according to the manufacturer’s protocol. Male and female SD rats (SLRC Laboratory Animal Inc., Shanghai, China) were used, and the detailed pharmacokinetic procedures are described in Supplementary Material.

PI3Kδ = PI3Kδ (Homo sapiens, UniProt O00329); assay: in vitro PI3Kδ inhibition assay (isoform selectivity); format: biochemical; settings: Table 4
Method: as §1

U87MG cells = assay: MTT antiproliferative assay, U87MG; format: cell-based; settings: Homo sapiens, U-87 MG
Method: as §1

PI3Kβ = PI3Kβ (Homo sapiens, UniProt P42338); assay: in vitro PI3Kβ inhibition assay (isoform selectivity); format: biochemical; settings: Table 4
Method: as §1

mTOR = mTOR (Homo sapiens, UniProt P42345); assay: in vitro mTOR inhibition assay (selectivity); format: biochemical; settings: Table 4
Method: as §1

PI3Kγ = PI3Kγ (Homo sapiens, UniProt P48736); assay: in vitro PI3Kγ inhibition assay (isoform selectivity); format: biochemical; settings: Table 4
Method: as §1

MRC-5 cells = assay: inhibitory activity on normal cells, MRC-5; format: cell-based; settings: Homo sapiens, MRC5
Text: (§2) Several clinical PI3K candidates were severely intolerable to patients due to fatal hepatotoxicity and, thus, failed in clinical trials. Thus, evaluating the selectivity of compounds toward normal cells might reduce the risk of clinical failure of new compounds.

MCF7 cells = assay: MTT antiproliferative assay, MCF7; format: cell-based; settings: Homo sapiens
Method: as §1

HL-7702 cells = assay: inhibitory activity on normal cells, HL-7702; format: cell-based; settings: Homo sapiens, L02
Text: as §2

A2780 cells = assay: MTT antiproliferative assay, A2780; format: cell-based; settings: Homo sapiens
Method: as §1

DU145 cells = assay: MTT antiproliferative assay, DU145; format: cell-based; settings: Homo sapiens, DU-145
Method: as §1

[1] = test system: Salmonella typhimurium TA98; assay: Ames test, plate incorporation, TA98; format: cell-based; settings: control, dose not given
Method: as §1
(§3) S. typhimurium TA98 and TA100 were selected to conduct the Ames experiment to investigate the genotoxicity risk of compound 17p.

[2] = test system: Salmonella typhimurium TA100; assay: Ames test, plate incorporation, TA100; format: cell-based; settings: control, dose not given
Method: as §1, §3

[3] = Figure 5 activity bins, read-out: IC50 range in SAR figure (PI3Kα)
[4] = mean of three independent experiments, read-out: IC50 against PI3Kα
[5] = Table 4, read-out: IC50 PI3Kα (isoform selectivity study)
[6] = mean of three independent experiments

Chain of PI3Kα (P42336 whole entry): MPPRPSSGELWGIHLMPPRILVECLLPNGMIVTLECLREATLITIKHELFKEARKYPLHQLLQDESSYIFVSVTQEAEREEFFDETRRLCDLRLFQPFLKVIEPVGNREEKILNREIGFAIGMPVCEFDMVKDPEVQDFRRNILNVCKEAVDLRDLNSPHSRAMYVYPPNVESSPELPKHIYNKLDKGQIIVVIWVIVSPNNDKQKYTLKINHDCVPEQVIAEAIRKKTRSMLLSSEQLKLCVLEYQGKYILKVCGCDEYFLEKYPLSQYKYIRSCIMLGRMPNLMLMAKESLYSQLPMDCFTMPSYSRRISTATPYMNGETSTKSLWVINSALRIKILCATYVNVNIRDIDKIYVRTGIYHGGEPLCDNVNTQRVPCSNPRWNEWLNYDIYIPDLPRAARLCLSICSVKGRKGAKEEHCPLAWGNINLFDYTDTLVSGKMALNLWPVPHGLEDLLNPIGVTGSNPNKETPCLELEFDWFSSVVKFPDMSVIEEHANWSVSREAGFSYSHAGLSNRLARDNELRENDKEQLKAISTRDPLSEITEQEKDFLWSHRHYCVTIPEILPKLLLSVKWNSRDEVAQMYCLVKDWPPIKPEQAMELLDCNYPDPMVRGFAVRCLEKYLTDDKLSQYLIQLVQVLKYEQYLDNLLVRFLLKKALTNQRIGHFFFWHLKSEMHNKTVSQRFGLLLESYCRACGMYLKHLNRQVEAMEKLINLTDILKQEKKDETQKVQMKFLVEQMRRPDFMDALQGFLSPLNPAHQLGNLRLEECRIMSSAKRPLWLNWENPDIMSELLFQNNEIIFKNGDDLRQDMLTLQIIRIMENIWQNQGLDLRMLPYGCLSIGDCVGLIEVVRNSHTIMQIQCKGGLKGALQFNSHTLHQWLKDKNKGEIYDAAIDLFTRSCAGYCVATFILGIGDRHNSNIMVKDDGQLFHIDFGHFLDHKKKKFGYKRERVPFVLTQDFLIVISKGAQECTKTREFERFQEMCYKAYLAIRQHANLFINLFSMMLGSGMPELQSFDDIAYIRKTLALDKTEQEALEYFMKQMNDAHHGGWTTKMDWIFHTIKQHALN
Chain of PI3Kα (P27986 whole entry partner): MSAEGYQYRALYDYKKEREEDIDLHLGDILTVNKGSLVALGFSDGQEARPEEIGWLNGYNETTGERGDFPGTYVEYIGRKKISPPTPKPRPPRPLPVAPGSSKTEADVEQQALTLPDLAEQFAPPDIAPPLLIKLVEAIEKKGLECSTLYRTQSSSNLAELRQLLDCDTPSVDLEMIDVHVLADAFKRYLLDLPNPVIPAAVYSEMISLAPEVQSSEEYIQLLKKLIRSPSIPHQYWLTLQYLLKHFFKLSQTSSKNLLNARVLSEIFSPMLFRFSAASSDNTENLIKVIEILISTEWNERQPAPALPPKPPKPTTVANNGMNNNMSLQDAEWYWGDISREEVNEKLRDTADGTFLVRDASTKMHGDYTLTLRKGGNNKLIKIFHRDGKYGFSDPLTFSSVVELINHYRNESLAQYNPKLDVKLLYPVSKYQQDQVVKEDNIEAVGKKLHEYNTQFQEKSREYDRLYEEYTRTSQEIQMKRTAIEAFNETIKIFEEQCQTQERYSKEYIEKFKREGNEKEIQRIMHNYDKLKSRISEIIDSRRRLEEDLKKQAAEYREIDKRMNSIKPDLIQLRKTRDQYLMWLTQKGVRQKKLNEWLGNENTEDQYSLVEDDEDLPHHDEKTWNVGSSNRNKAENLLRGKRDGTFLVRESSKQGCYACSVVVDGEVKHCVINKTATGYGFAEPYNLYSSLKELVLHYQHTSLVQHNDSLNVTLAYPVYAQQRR
Chain of PI3Kβ (P42338 whole entry, canonical isoform): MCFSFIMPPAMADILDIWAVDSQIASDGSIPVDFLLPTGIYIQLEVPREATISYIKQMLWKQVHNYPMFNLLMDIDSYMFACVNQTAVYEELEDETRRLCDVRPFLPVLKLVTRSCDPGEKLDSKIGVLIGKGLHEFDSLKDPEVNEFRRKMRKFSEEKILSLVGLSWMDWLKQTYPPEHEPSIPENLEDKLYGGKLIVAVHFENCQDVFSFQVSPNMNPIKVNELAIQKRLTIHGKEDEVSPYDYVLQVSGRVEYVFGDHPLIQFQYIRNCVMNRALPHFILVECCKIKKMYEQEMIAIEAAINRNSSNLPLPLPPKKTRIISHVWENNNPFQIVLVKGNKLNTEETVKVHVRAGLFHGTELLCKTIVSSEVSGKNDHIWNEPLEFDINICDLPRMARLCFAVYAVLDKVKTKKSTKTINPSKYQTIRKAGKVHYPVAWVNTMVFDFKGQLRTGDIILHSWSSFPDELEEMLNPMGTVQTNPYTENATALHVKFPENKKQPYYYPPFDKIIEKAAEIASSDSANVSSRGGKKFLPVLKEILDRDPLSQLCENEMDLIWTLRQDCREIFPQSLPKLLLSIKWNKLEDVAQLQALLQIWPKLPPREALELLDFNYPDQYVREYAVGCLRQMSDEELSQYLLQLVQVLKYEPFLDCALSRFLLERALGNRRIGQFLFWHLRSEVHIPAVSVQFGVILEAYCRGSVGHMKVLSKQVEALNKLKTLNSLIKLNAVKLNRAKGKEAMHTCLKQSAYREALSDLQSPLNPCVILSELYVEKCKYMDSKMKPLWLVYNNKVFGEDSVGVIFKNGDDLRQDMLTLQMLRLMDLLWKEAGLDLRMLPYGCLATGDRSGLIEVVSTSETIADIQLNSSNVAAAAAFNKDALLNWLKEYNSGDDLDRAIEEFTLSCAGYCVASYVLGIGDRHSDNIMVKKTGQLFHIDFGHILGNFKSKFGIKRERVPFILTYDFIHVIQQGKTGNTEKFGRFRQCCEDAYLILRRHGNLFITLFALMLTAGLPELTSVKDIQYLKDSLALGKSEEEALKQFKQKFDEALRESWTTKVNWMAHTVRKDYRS
Chain of PI3Kβ (P27986 whole entry partner, canonical isoform): as the sequence (P27986 whole entry partner) above
Chain of PI3Kδ (O00329 whole entry, canonical isoform): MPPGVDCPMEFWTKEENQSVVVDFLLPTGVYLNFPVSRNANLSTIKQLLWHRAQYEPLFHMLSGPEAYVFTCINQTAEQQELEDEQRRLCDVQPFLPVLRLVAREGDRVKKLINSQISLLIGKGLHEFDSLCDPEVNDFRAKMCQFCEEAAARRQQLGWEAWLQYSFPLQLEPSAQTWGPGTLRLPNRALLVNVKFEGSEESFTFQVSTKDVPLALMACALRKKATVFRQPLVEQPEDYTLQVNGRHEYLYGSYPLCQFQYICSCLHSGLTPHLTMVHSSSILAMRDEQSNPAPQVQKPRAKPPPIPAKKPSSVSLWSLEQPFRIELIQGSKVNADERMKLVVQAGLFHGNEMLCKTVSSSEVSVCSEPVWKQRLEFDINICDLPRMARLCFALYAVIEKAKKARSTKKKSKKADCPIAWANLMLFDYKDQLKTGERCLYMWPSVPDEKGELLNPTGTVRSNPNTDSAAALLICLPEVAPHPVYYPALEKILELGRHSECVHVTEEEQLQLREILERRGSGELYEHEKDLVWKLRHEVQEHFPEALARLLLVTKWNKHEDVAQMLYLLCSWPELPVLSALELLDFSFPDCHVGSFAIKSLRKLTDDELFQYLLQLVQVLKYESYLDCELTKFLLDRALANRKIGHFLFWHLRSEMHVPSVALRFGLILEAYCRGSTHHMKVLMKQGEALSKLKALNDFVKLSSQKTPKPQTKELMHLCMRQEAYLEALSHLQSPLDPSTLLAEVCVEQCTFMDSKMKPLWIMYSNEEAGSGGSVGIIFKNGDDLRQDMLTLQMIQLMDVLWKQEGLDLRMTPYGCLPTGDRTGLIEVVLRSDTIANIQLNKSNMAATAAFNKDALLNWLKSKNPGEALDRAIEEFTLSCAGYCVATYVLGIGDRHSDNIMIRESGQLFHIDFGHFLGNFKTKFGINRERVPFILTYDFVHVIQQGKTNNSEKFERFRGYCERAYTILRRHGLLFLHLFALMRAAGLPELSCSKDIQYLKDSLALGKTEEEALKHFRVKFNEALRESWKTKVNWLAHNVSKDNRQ
Chain of PI3Kδ (P27986 whole entry partner, canonical isoform): as the sequence (P27986 whole entry partner) above
Chain of PI3Kγ (P48736 whole entry, canonical isoform): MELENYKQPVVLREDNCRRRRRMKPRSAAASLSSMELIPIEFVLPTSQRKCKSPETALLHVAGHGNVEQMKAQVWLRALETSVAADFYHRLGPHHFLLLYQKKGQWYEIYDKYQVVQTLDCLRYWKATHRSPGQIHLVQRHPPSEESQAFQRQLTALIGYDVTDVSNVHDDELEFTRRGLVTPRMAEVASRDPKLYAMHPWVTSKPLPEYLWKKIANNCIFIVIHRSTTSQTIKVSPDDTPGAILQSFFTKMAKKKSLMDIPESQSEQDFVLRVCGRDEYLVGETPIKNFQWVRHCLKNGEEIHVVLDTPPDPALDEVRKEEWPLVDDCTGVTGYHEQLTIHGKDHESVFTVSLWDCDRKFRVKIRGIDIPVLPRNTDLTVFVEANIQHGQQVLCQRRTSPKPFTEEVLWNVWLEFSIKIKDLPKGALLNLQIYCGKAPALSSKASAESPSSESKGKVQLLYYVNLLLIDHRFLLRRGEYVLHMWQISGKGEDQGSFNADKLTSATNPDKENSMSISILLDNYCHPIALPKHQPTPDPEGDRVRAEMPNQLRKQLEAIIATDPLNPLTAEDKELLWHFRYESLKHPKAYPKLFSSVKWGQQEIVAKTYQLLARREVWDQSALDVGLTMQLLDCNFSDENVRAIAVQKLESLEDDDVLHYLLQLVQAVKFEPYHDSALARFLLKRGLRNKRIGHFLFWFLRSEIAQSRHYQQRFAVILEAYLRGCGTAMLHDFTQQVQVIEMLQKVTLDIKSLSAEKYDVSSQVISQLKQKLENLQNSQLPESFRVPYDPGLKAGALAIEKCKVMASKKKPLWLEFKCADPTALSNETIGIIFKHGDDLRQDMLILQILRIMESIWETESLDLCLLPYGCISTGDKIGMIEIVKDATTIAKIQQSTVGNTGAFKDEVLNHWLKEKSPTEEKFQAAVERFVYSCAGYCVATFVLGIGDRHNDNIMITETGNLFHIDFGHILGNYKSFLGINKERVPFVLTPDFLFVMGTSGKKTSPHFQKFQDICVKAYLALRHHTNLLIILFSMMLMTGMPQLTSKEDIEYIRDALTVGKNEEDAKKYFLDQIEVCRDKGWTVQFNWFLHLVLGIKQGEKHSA

IC50 (PI3Kα; [3]): 400 to 800 nM | IC50 (PI3Kα; [4]): 792 ± 87.7 nM
SMILES: N#Cc1c(-c2cccnc2)nc(N2CCOCC2)nc1N1CCOCC1 [Compound 17i]

IC50 (PI3Kα; [3]): 30 to 300 nM | IC50 (PI3Kα; [4]): 254 ± 26.9 nM
SMILES: N#Cc1c(-c2cccc3[nH]ncc23)nc(N2CCOCC2)nc1N1CCOCC1 [Compound 17b]

IC50 (PI3Kα; [3]): 30 to 300 nM | IC50 (PI3Kα; [4]): 159 ± 14.4 nM
SMILES: N#Cc1c(-c2ccc(N)nc2)nc(N2CCOCC2)nc1N1CCOCC1 [Compound 17k]

IC50 (PI3Kα; Figure 5 activity bins, read-out: weak activity IC50 in SAR figure (PI3Kα)): > 1000 nM | IC50 (PI3Kα; [4]): 3040 nM
SMILES: N#Cc1c(-c2ccncc2)nc(N2CCOCC2)nc1N1CCOCC1 [Compound 17j]

IC50 (PI3Kα; [4]): 371 ± 45.4 nM
SMILES: CCOC(=O)C1CCN(c2nc(-c3cnc(N)cc3C(F)(F)F)nc(N3CCOCC3)n2)CC1 [Compound 12f]

IC50 (PI3Kδ): 55.6 ± 3.8 nM | IC50 (U87MG cells): 1750 ± 220 nM | IC50 (PI3Kβ): 152 ± 18.7 nM | IC50 (PI3Kα; [3]): 30 to 300 nM | IC50 (PI3Kα; [5]): 86.1 ± 7.8 nM | IC50 (PI3Kα; [4]): 88.5 ± 6.1 nM | IC50 (mTOR): > 10000 nM | IC50 (PI3Kγ): 318 ± 19 nM | IC50 (MCF7 cells): 370 ± 30 nM | IC50 (A2780 cells): 390 ± 30 nM | IC50 (DU145 cells): 1520 ± 110 nM
SMILES: N#Cc1c(-c2cccc(O)c2)nc(N2CCOCC2)nc1N1CCOCC1 [Compound 17e]
IC50 (MRC-5 cells): 2190 ± 110 nM | IC50 (HL-7702 cells): 6170 ± 750 nM

IC50 (PI3Kα; [3]): 400 to 800 nM | IC50 (PI3Kα; [4]): 473 ± 28.3 nM
SMILES: N#Cc1c(-c2ccc(O)cc2)nc(N2CCOCC2)nc1N1CCOCC1 [Compound 17f]

SMILES: Nc1cc(C(F)(F)F)c(-c2cc(N3CCOCC3)nc(N3CCOCC3)n2)cn1 [BKM-120, Buparlisib, reference compound]
IC50 (U87MG cells): 2150 ± 190 nM | IC50 (MRC-5 cells): 980 ± 100 nM | Number of bacterial colony revertant mutations (mean ± SD) TA98 [1]: 241 ± 55 | IC50 (MCF7 cells): 280 ± 40 nM | IC50 (HL-7702 cells): 890 ± 60 nM | IC50 (A2780 cells): 410 ± 60 nM | Number of bacterial colony revertant mutations (mean ± SD) TA100 [2]: 555 ± 94 | IC50 (DU145 cells): 2240 ± 140 nM

IC50 (PI3Kα; [3]): 400 to 800 nM | IC50 (PI3Kα; [4]): 604 ± 103 nM
SMILES: N#Cc1c(-c2cncnc2)nc(N2CCOCC2)nc1N1CCOCC1 [Compound 17n]

IC50 against PI3Kα (PI3Kα; [6]): no activity | IC50 (PI3Kα; [4]): > 10000 nM
SMILES: c1nn(C2CCNCC2)cc1-c1cc(N2CCOCC2)nc(N2CCOCC2)n1 [Compound 12c]

IC50 against PI3Kα (PI3Kα; [6]): poor activity | IC50 (PI3Kα; [4]): 1010 nM
SMILES: COc1ccc(-c2cc(N3CCOCC3)nc(N3CCOCC3)n2)cn1 [Compound 12d]

IC50 (PI3Kδ): 204 ± 22.2 nM | IC50 (U87MG cells): 4190 ± 530 nM | IC50 (PI3Kβ): 176 ± 26.3 nM | IC50 (PI3Kα; [3]): 30 to 300 nM | IC50 (PI3Kα; [5]): 34.7 ± 4.6 nM | IC50 (PI3Kα; [4]): 34.7 ± 2.1 nM | IC50 (mTOR): 204 ± 30.1 nM | IC50 (PI3Kγ): 176 ± 15.9 nM | IC50 (MCF7 cells): 1160 ± 120 nM | IC50 (A2780 cells): 1130 ± 100 nM | IC50 (DU145 cells): 5050 ± 470 nM
SMILES: CNc1ncc(-c2nc(N3CCOCC3)nc(N3CCOCC3)c2C#N)cn1 [Compound 17o]
